In patent US7871999B2, “Substituted thiazoles and their use for producing drugs” (Gruenenthal GmbH, priority 2005, dated 2011):

Tests used:
[1] = tested on: rats; assay: Formaldehyde test in rats (phase 2, chronic pain component); format: in vivo; details: rat
Method: III. Formaldehyde Test in Rats: The formaldehyde test (Dubuisson, D. and Dennis, S. G., 1977, Pain, 4, 161-174) is a model of both acute and chronic pain. A biphasic nociceptive response is induced in freely mobile test animals by a single formaldehyde injection into the dorsal side of a hind paw, said response being detected by the observation of three clearly distinguishable behaviour patterns. The response is in two phases: phase 1=immediate response (duration up to 10 min; paw shaking, licking), phase 2=late response (after a resting phase; likewise paw shaking, licking; duration up to 60 min). The 1st phase reflects direct stimulation of the peripheral nocisensors with an elevated spinal nociceptive input or glutamate release (acute pain phase); the 2nd phase reflects spinal and peripheral hypersensitisation (chronic pain phase). In the investigations presented here, it was the chronic pain component (phase 2) which was evaluated. […] The specific behavioural changes, such as raising and shaking the paw, changes in weight bearing of the animal and biting and licking responses are observed and recorded over the observation period of 21 to 27 min after the formaldehyde injection. The various behaviours are summarised as a “pain rate” (PR), which is the calculated nociceptive response averaged over 3 min sub-intervals. […]

[2] = target: T1, mGluR5 receptor (Sus scrofa, UniProt I3LUI7); assay: Inhibition of [^3H]-MPEP binding in the mGluR5 receptor binding assay (pig brain homogenate); details: 5 nM [^3H]-MPEP
T1 construct: pig brain hemispheres without medulla, cerebellum and pons ... differential centrifugation at 900×g and 40,000×g
T1 sequence (I3LUI7 1-1212): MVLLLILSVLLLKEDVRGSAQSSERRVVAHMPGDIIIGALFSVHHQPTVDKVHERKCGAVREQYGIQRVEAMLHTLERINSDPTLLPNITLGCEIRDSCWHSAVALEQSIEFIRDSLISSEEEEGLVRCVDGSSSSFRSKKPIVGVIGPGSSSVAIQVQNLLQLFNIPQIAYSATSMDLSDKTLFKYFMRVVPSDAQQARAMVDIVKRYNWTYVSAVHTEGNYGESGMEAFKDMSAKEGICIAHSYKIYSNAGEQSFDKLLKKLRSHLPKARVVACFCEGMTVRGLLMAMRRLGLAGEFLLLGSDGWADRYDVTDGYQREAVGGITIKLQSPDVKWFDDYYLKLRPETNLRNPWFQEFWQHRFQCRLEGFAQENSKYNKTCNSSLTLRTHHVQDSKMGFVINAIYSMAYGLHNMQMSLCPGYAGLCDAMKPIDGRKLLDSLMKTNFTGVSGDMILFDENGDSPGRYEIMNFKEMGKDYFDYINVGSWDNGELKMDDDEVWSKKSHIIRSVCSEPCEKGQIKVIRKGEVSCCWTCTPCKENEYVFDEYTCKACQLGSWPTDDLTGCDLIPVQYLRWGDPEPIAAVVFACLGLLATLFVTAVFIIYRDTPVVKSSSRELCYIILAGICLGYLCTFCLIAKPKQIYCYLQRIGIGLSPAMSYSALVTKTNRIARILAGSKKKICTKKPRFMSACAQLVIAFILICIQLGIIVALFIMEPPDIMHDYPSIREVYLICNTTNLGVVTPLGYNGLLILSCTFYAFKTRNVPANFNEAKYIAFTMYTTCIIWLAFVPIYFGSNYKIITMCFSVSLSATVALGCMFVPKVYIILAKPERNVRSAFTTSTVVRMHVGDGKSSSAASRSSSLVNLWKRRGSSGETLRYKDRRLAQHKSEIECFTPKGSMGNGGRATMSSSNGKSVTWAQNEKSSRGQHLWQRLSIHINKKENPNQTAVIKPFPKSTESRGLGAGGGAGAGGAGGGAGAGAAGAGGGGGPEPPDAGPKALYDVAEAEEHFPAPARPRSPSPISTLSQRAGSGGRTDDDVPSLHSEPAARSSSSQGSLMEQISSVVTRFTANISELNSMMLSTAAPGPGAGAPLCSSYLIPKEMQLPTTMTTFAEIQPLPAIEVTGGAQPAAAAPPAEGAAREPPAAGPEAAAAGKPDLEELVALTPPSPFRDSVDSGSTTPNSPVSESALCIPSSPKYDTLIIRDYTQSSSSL
Method: I. Method for Determining the Inhibition of [^3H]-MPEP Binding in the mGluR5 Receptor Binding Assay […]
The batches are then filtered with the assistance of a Brandel Cell Harvester (Brandel, Robotic 9600 model) on Unifilter plates with glass filter mats (Perkin Elmer, order number 6005177) and then washed 3 times with buffer (as above) using 250 μl per sample. The filter plates are then dried for 60 min at 55° C. Then 30 μl of Ultima Gold™ scintillating material (Packard BioScience, order number 6013159) is added per well and after 3 hours the samples are measured using the β counter (Microbeta, Perkin Elmer). Nonspecific binding is determined by the addition of 10 μM MPEP (Tocris, order number 1212).

For `CN(CCNC(=O)C#Cc1cccc(Cl)c1)c1nccs1.Cl` [Example 23, N-(2-(Methyl(thiazol-2-yl)amino)ethyl)-3-(3-chlorophenyl)-propiolamide hydrochloride], the ED50 ([1]; iv, i.v. administration) was 1 mg/kg, the “inhibition in the formaldehyde test” value ([1]; oral administration of 10 mg/kg) was 38% and the IC50 [2] was 5.6 nM.
